# Results from ChEMBL document CHEMBL1152602, “A new therapeutic approach in Parkinson's disease: some novel quinazoline derivatives as dual selective phosphodiesterase 1 inhibitors and anti-inflammatory agents” (Bioorg Med Chem, 2009).
# Experiments:
# Rattus norvegicus [1] = assay: Antiinflammatory activity in Sprague-Dawley rat assessed as inhibition of carrageenan-induced paw edema at 50 mg/kg, ip treated 60 mins before carrageenan challenge measured after 90 mins; format: functional; conditions: route intraperitoneal
# [2] = Inhibition of PDE1
# Rattus norvegicus [3] = assay: Antiinflammatory activity in Sprague-Dawley rat assessed as inhibition of carrageenan-induced paw edema at 50 mg/kg, po treated 60 mins before carrageenan challenge measured after 180 mins; format: functional
# Rattus norvegicus [4] = assay: Antiinflammatory activity in Sprague-Dawley rat assessed as inhibition of carrageenan-induced paw edema at 50 mg/kg, po treated 60 mins before carrageenan challenge measured after 90 mins; format: functional
# Rattus norvegicus [5] = assay: Antiinflammatory activity in Sprague-Dawley rat assessed as inhibition of carrageenan-induced paw edema at 50 mg/kg, ip treated 60 mins before carrageenan challenge measured after 180 mins; format: functional; conditions: route intraperitoneal
# Rattus norvegicus [6] = assay: Toxicity in Sprague-Dawley rat assessed as gastrointestinal ulceration at 200 mg/kg, po once daily for 5 days; format: organism-based; parameters: dose 200 mg/kg, route oral; conditions: in vivo, 120 h
Structure (SMILES),inhibition in vivo at 50 mg/kg (Rattus norvegicus [1]) [%],IC50 [2] [µM],inhibition in vivo at 50 mg/kg (Rattus norvegicus [3]) [%],inhibition in vivo at 50 mg/kg (Rattus norvegicus [4]) [%],inhibition in vivo at 50 mg/kg (Rattus norvegicus [5]) [%],Activity (Rattus norvegicus [6])
Cc1ccc(-c2cc(Cc3ccco3)c3c(ncn4c(=O)c5ccccc5nc34)n2)cc1,6,56.4,22,11,20,
O=c1c2cc(Br)cc(Br)c2nc2c3c(-c4ccc([N+](=O)[O-])cc4)cc(-c4ccc([N+](=O)[O-])cc4)nc3ncn12,47,72.5,54,46,56,
Cc1ccc(-c2cc(-c3ccccc3)nc3ncn4c(=O)c5cc(Br)cc(Br)c5nc4c23)cc1,62,52.4,70,59,72,Non-toxic
COc1ccc(-c2cc(-c3cccc([N+](=O)[O-])c3)c3c(ncn4c(=O)c5ccccc5nc34)n2)cc1,3,39.9,9,3,16,
Cc1ccc(-c2cc(Cc3ccco3)c3c(ncn4c(=O)c5cc(Br)ccc5nc34)n2)cc1,24,72.5,37,13,41,
O=c1c2ccccc2nc2c3c4c(sc3ncn12)CCCC4,71,228,75,70,81,Non-toxic
Cc1ccc(-c2csc3ncn4c(=O)c5cc(Br)ccc5nc4c23)cc1,42,85.3,52,40,56,
O=c1c2ccccc2nc2c3c(-c4ccc([N+](=O)[O-])cc4)cc(-c4ccc([N+](=O)[O-])cc4)nc3ncn12,11,83.7,11,5,23,
O=c1c2ccccc2nc2c3c(-c4ccc(Cl)cc4)csc3ncn12,42,124,53,37,57,Non-toxic
COc1ccc(-c2cc(-c3cccc([N+](=O)[O-])c3)c3c(ncn4c(=O)c5cc(Br)ccc5nc34)n2)cc1,13,101,25,12,30,
O=c1c2cc(Br)ccc2nc2c3c(-c4ccc([N+](=O)[O-])cc4)cc(-c4ccc([N+](=O)[O-])cc4)nc3ncn12,11,101,22,10,28,
O=c1c2cc(Br)cc(Br)c2nc2c3c(-c4ccccc4)cc(-c4ccc(Cl)cc4)nc3ncn12,30,78,42,28,47,
CC(C)Cn1c(=O)n(C)c(=O)c2nc[nH]c21 [ISOBUTYLMETHYLXANTHINE],,24.7,,,,
Cc1ccc(-c2cc(-c3ccccc3)nc3ncn4c(=O)c5ccccc5nc4c23)cc1,8,91.8,15,8,20,
Cc1sc2ncn3c(=O)c4cc(Br)ccc4nc3c2c1C,66,146,71,63,76,
Cc1ccc(-c2cc(-c3ccc(Cl)cc3)c3c(ncn4c(=O)c5ccccc5nc34)n2)cc1,38,98.2,49,37,53,
O=c1c2cc(Br)ccc2nc2c3c4c(sc3ncn12)CCCC4,63,128,68,60,71,
COc1ccc2c(c1)c(CC(=O)O)c(C)n2C(=O)c1ccc(Cl)cc1 [INDOMETHACIN],76,,79,72,83,Toxic
O=c1c2cc(Br)ccc2nc2c3c(-c4ccc(Cl)cc4)csc3ncn12,29,90.5,44,26,50,

Structure (SMILES),inhibition in vivo at 50 mg/kg (Rattus norvegicus [1]) [%],IC50 [2] [µM],inhibition in vivo at 50 mg/kg (Rattus norvegicus [3]) [%],inhibition in vivo at 50 mg/kg (Rattus norvegicus [4]) [%],inhibition in vivo at 50 mg/kg (Rattus norvegicus [5]) [%],Activity (Rattus norvegicus [6])
Cc1ccc(-c2csc3ncn4c(=O)c5cc(Br)cc(Br)c5nc4c23)cc1,22,61.9,33,20,37,
Cc1ccc(-c2cc(-c3ccc(Cl)cc3)c3c(ncn4c(=O)c5cc(Br)ccc5nc34)n2)cc1,82,66.4,87,80,89,
O=c1c2cc(Br)ccc2nc2c3c(-c4ccccc4)cc(-c4ccc(Cl)cc4)nc3ncn12,69,95.1,77,67,80,Non-toxic
COc1ccc(-c2cc(-c3ccccc3)nc3ncn4c(=O)c5cc(Br)ccc5nc4c23)cc1,28,76.6,41,26,44,
Cc1ccc(-c2csc3ncn4c(=O)c5ccccc5nc4c23)cc1,51,230,62,48,68,Non-toxic
COc1ccc(-c2cc(-c3ccccc3)nc3ncn4c(=O)c5cc(Br)cc(Br)c5nc4c23)cc1,78,33.7,82,76,86,Non-toxic
Cc1ccc(-c2cc(-c3ccc(Cl)cc3)c3c(ncn4c(=O)c5cc(Br)cc(Br)c5nc34)n2)cc1,78,57.6,80,72,83,
COc1ccc(-c2cc(-c3ccccc3)nc3ncn4c(=O)c5ccccc5nc4c23)cc1,8,72.1,18,7,22,
O=c1c2ccccc2nc2c3c(-c4ccccc4)cc(-c4ccc(Cl)cc4)nc3ncn12,18,80.6,26,18,34,
COc1ccc(-c2csc3ncn4c(=O)c5cc(Br)cc(Br)c5nc4c23)cc1,16,60.5,29,15,31,
Cc1ccc(-c2cc(-c3ccccc3)nc3ncn4c(=O)c5cc(Br)ccc5nc4c23)cc1,60,78.1,68,57,70,Non-toxic
O=c1c2cc(Br)cc(Br)c2nc2c3c(-c4ccc(Cl)cc4)csc3ncn12,2,83.5,10,2,17,
COc1ccc(-c2csc3ncn4c(=O)c5ccccc5nc4c23)cc1,69,66.9,71,57,74,Non-toxic
Cc1sc2ncn3c(=O)c4cc(Br)cc(Br)c4nc3c2c1C,11,95.7,22,10,27,
O=c1c2cc(Br)cc(Br)c2nc2c3c4c(sc3ncn12)CCCC4,4,104,15,5,21,
Cc1sc2ncn3c(=O)c4ccccc4nc3c2c1C,76,295,84,74,86,Non-toxic
COc1ccc(-c2cc(-c3cccc([N+](=O)[O-])c3)c3c(ncn4c(=O)c5cc(Br)cc(Br)c5nc34)n2)cc1,68,72,74,65,78,Non-toxic
COc1ccc(-c2csc3ncn4c(=O)c5cc(Br)ccc5nc4c23)cc1,53,82.2,59,50,70,
